Patent publication US9889184B2 (priority 2008, dated 2018)
Where two headings read alike, the source gives them in different places.

Assays:
Aspergillus nidulans = assay: Growth inhibition by NaD1 (microtitre OD595); assay type: cell-based
Description: (§1) Antifungal activity against Fusarium oxysporum f. sp. vasinfectum (Fov, Australian isolate VCG01111 isolated from cotton; from Wayne O'Neill, Farming Systems Institute, DPI, Queensland, Australia), Thielaviopsis basicola (gift from David Nehl, NSW DPI, Narrabri, Australia), Verticillium dahliae (from Helen McFadden, CSIRO Plant Industry, Black Mountain, Australia), Leptosphaeria maculans (from Barbara Howlett, University of Melbourne, Victoria, Australia) and Aspergillus nidulans (from Michael Hynes, University of Melbourne) was assessed essentially as described in Broekaert et al, 1990. Spores were isolated from sporulating cultures growing in either half-strength potato dextrose broth (PDB) (Fov and T. basicola), Czapeck-Dox Broth (V. dahliae) (Difco Laboratories) or 10% (v/v) clarified V8 medium (L. maculans and A. nidulans) by filtration through sterile muslin. Spore concentrations were determined using a hemocytometer and adjusted to 5×10^4 spores/mL in the appropriate growth medium. Spore suspensions (80 μL) were added to the wells of sterile 96-well flat-bottomed microtitre plates along with 20 μL of filter-sterilized (0.22 μm syringe filter; Millipore) NaD1, or water to give final protein concentrations of 0-10 μM. The plates were shaken briefly and placed in the dark at 25° C. without shaking until the optical density at 595 nm of the water control reached approximately 0.2 (24-72 h depending on growth rate). Hyphal growth was estimated by measuring the optical density at 595 nm using a microtitre plate reader (SpectraMax Pro M2; Molecular Devices). Each test was performed in quadruplicate.

Leptosphaeria maculans = assay: Growth inhibition by NaD1 (microtitre OD595); assay type: cell-based
Description: as §1

Thielaviopsis basicola = assay: Growth inhibition by NaD1 (microtitre OD595); assay type: cell-based
Description: as §1

Verticillium dahliae = assay: Growth inhibition by NaD1 (microtitre OD595); assay type: cell-based
Description: as §1

Fov hyphae [1] = assay: Membrane permeabilization of Fov hyphae, SYTOX green uptake; assay type: cell-based, Fusarium oxysporum f. sp. vasinfectum
Protocol: (§2) Fov hyphae were grown in half-strength PDB (10 mL in a 50 mL tube) from a starting concentration of 5×10^4 spores/mL for 18 h at 25° C. with constant shaking. Samples (1 mL) were then removed and NaD1 (final concentration 2 μM), NaD1R&A (final concentration 2 μM) or an equivalent volume of water was added before incubation for 2 h at RT with gentle agitation. SYTOX® green (Invitrogen-Molecular Probes, Eugene, Oreg.) was added to a final concentration of 0.5 μM and the hyphae were allowed to stand for 10 min. Hyphae (20 μL) were then transferred to microscope slides (SuperFrost (Registered) Plus, Menzel-Glaser) and covered with glass coverslips for visualization of SYTOX® green uptake using an Olympus BX51 fluorescence microscope. SYTOX® green fluorescence was detected using an MWIB filter (excitation wavelength 460-490 nm). Images were captured using a SPOT RT 3CCD digital camera (Diagnostic Instruments) and processed using Adobe Photoshop. SYTOX® green uptake was quantitated by measuring fluorescence of hyphae in microtitre trays using a fluorimeter (SpectraMax M2; Molecular Devices) with excitation and emission wavelengths of 488 nm and 538 nm, respectively.
The effect of temperature on membrane permeabilization of Fov hyphae by NaD1 was monitored as described, except hyphae were pre-equilibrated for 60 min at either 10°, 4° or 0° C. before addition of NaD1 and all subsequent steps were carried out at these temperatures.
The kinetics of membrane permeabilization by NaD1 were studied. Fov hyphae were grown in half-strength PDB from a starting concentration of 5×10^4 spores/mL for 18 h at 25° C. Hyphae (80 μL) were then transferred to 96-well microtitre plates and incubated with SYTOX® green (0.5 μM) for 10 min prior to the addition of 20 μL of peptide solution to give final protein concentrations of 0.2, 0.4, 0.8, 1.6, 3.12, 6.25, 12.5, 25, 50 or 100 μM. Fluorescence readings (Ex; 488 nm, Em; 538 nm) were then taken every 2 min for 3 h using a fluorimeter (SpectraMax M2).

Fov hyphae [2] = assay: Uptake of FITC-labeled dextrans into NaD1-treated hyphae; assay type: cell-based, Fusarium oxysporum f. sp. vasinfectum
Protocol: The uptake of FITC-labeled dextran following NaD1 treatment of fungal hyphae was also studied. Fov hyphae were grown as described above and incubated with NaD1 (final concentration 0.1, 2, 10 or 50 μM) or an equivalent volume of water for 2 h at RT with gentle agitation. Hyphae were washed twice for 10 min with half-strength PDB to remove excess NaD1 before FITC dextrans of either 4 kDa (FD-4, Sigma-Aldrich) or 10 kDa (FD-10, Sigma-Aldrich) were added to a final concentration of 1 μM. Hyphae were incubated for a further 30 min at RT and then washed twice with half strength PDB to remove excess dextrans. Fluorescence microscopy was used to visualize hyphae as described for SYTOX® green. A second assay was performed under the same conditions except the dextrans were added at the same time as NaD1.

Fusarium graminearum = assay type: cell-based
[3] = test system: Fusarium oxysporum f. sp. vasinfectum (Fov) hyphae; assay: Permeabilisation of Fov hyphae by defensins, SYTOX green (Example 10); assay type: cell-based; conditions: within 60 mins; followed over 2 h
Protocol: as §2
The ability of defensins to permeabilise Fusarium oxysporum f. sp. vasinfectum (Fov) hyphae was assessed using a SYTOX green assay as described in the detailed description (NaD1 and membrane permeabilisation).

“NaD1: plant defensin isolated from floral tissue of Nicotiana alata (SEQ ID NO:12) (RECKTESNTFPGICITKPPCRKACISEKFTDGHCSKILRRCLCTKPC; Nicotiana alata (NaD1))” was tested, and the growth inhibited (Aspergillus nidulans; 1 μM NaD1, A. nidulans) was “approximately 65%”, the growth inhibited (Aspergillus nidulans; 5 μM NaD1, A. nidulans) was “more than 80%” and the IC50 (Aspergillus nidulans; Aspergillus nidulans) was 800 nM. For the same substance, the growth retarded (Leptosphaeria maculans; 1 μM NaD1, L. maculans) was 50%, the growth inhibited (Leptosphaeria maculans; 5 μM NaD1, L. maculans) was “more than 80%” and the IC50 (Leptosphaeria maculans; Leptosphaeria maculans) was 800 nM. For the same substance, the growth inhibited (Thielaviopsis basicola; 1 μM NaD1, T. basicola) was “approximately 65%”, the growth inhibited (Thielaviopsis basicola; 5 μM NaD1, T. basicola) was “more than 80%” and the IC50 (Thielaviopsis basicola; Thielaviopsis basicola) was 800 nM. For the same substance, the growth inhibited (Verticillium dahliae; 1 μM NaD1, V. dahliae) was “approximately 65%”, the growth inhibited (Verticillium dahliae; 5 μM NaD1, V. dahliae) was “more than 80%” and the IC50 (Verticillium dahliae; Verticillium dahliae) was 750 nM. For the same substance, the “NaD1-induced permeabilization (SYTOX green uptake)” value (“NaD1-induced permeabilization” below) (Fov hyphae [1]; 0° C., compared with 4° C.) was “reduced even further”, the “permeabilization of Fov hyphal membranes (SYTOX green)” value (Fov hyphae [1]; 0.1, 2 or 10 μM NaD1 or 10 μM NaD1R&A) was “permeabilized hyphae” and the “NaD1-induced permeabilization” value (Fov hyphae [1]; 4° C.) was “only a small degree of permeabilization”. For the same substance, the “NaD1-induced permeabilization” value (Fov hyphae [1]; 10° C., less than at 25° C.) was “substantial uptake of SYTOX® green”, the “NaD1 concentration up to which Vmax increased linearly; above it rate unchanged (saturable)” value (Fov hyphae [1]; Vmax = maximum rate of fluorescence increase) was 6.25 µM and the “NaD1 concentration up to which the rate of permeabilization increased progressively” value (Fov hyphae [1]; above it (up to 50 μM) very little difference in kinetics) was 3 µM. For the same substance, the “lag time before permeabilization” value (Fov hyphae [1]; all NaD1 concentrations) was “around 20 min”, the “time after which fluorescence began to plateau” value (Fov hyphae [1]; all NaD1 concentrations) was 90 min and the SYTOX green uptake (Fov hyphae [1]; lowest concentration of NaD1 (0.1 μM)) was “a small amount of SYTOX® green uptake occurred”. For the same substance, the “entry of 10 kDa FITC-dextran (23 Å) into NaD1-treated hyphae” value (Fov hyphae [2]; even at very high concentrations of NaD1) was “excluded”, the “entry of 4 kDa FITC-dextran (14 Å) into NaD1-treated hyphae” value (Fov hyphae [2]; same NaD1 concentration that led to SYTOX green uptake) was “entered hyphae” and the “toxicity with Fusarium graminearum” value (Fusarium graminearum; 0.5 μM NaD1 combined with 0.5 μM/mL NaCys2, FIG. 3B) was “significantly enhanced”. For the same substance, the “toxicity with Fusarium graminearum” value (Fusarium graminearum; 0.5 μM NaD1 in the absence of NaCys2, FIG. 3B) was “very low” and the “permeabilisation of Fov hyphae (SYTOX green)” value [3] was “efficiently permeabilise”.
